For orientation: Kd means the free concentration of one partner at which half of the binding sites on the other are occupied at equilibrium, for simple one-to-one binding. As a reminder, the IC50 is the concentration at which inhibition is half-maximal. A high value points to weaker potency in that assay.

The text below walks through data of patent US20250368666A1, “INDAZOLE COMPOUNDS” (TYRA BIOSCIENCES, INC., priority 2022, published 2025).

Structures are written as SMILES. Counter-ions that a name gives are not always drawn.

Assay [1] addresses T1, FGFR1 (Homo sapiens, UniProt P11362).
T1 construct: made in house; host or cells: E. coli (BL21-derived), T7 phage
The assay is described as follows: Kinase binding assay (kinase-tagged T7 phage, affinity beads, qPCR), Kd. Particulars: read-out: FGFR1 (Kd nM). In a few lines:
(§1)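 Phage-tagged kinase capture on small-molecule affinity resin, compound competition, qPCR quantitation; Kd from Levenberg-Marquardt Hill fit.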
On the technique in general: Real-time PCR tracks product formation cycle by cycle.

The target in assay [2] is T2, FGFR2 (Homo sapiens, UniProt P21802).
T2 construct: made in house; host or cells: E. coli (BL21-derived), T7 phage
Described as above. Particulars: read-out: FGFR2 (Kd nM). Summed up:
as §1

In assay [3] the target is T3, FGFR3 (Homo sapiens, UniProt P22607).
T3 construct: made in house; host or cells: E. coli (BL21-derived), T7 phage
The description is as above. Particulars: read-out: FGFR3 (Kd nM). In a few lines:
as §1

Assay [4] deals with T4, FGFR3 (V555M) (Homo sapiens, UniProt P22607, V555M).
T4 construct: made in house; host or cells: E. coli (BL21-derived), T7 phage
The assay is described as above. Particulars: V555M mutant; read-out: FGFR3 (V555M) (Kd nM). In a few lines:
as §1

In assay [5] the target is T5, FGFR4 (Homo sapiens, UniProt P22455).
T5 construct: made in house; host or cells: E. coli (BL21-derived), T7 phage
The assay is described as above. Particulars: read-out: FGFR4 (Kd nM). In a few lines: as §1

Assay [6] relates to KATO-III cell line (FGFR2 amplification). Nature of the assay: Cancer cell line cell viability assay (Cell Titer-Glo), 72 hr. The assay is classed as cell-based. Particulars: Homo sapiens, KATO III. Summed up: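 Luminescent ATP read-out (Cell Titer-Glo 2.0) after compound exposure, normalised to DMSO-only wells. Dosing: 9 concentrations, 4-fold steps, top 3 μM, triplicates. IC50 derived by log(inhibitor) vs. response 4-parameter fit.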

Assay [7] has as its system KG-1 cell line (FGFR 1-fusion). The assay is described as above. Particulars: Homo sapiens, KG-1, KG-1 cell line (FGFR1-fusion). The assay is classed as cell-based. In a few lines: (§2)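 5,000-20,000 cells/well o/n; cpd 9-pt 4x dil from 3 μM, n=3; 37° C/5% CO2; CTG 2.0 lumi; % DMSO ctrl; 4PL IC50.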
Assay [8] deals with RT112/84 cell line (FGFR3-fusion). The description is as above. Particulars: Homo sapiens, RT112/84, RT112/84 cell line (FGFR3-fusion). The assay is classed as cell-based. Summed up:
as §2

T1 sequence (P11362 22-822): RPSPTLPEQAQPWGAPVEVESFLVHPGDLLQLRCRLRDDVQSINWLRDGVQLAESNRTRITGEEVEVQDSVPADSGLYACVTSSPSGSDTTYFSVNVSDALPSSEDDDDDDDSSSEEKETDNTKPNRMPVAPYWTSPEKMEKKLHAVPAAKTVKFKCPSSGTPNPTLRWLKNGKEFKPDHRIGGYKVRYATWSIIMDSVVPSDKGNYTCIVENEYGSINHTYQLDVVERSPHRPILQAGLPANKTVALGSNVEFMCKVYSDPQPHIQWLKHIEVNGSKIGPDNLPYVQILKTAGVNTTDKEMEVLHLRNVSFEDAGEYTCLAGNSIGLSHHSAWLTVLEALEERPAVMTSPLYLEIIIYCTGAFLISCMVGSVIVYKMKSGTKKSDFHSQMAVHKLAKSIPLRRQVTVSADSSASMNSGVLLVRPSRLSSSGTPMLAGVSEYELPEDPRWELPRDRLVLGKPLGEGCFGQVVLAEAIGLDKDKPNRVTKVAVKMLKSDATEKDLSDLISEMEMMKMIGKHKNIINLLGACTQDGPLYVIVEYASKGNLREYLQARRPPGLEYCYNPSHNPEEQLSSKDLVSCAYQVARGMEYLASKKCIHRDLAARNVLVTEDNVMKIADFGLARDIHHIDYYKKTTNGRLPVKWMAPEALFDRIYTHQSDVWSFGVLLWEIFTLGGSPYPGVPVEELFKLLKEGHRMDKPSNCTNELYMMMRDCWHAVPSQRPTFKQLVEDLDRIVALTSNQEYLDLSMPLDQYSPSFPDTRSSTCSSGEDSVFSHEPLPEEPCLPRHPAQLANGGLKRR
T5 sequence (P22455 22-802): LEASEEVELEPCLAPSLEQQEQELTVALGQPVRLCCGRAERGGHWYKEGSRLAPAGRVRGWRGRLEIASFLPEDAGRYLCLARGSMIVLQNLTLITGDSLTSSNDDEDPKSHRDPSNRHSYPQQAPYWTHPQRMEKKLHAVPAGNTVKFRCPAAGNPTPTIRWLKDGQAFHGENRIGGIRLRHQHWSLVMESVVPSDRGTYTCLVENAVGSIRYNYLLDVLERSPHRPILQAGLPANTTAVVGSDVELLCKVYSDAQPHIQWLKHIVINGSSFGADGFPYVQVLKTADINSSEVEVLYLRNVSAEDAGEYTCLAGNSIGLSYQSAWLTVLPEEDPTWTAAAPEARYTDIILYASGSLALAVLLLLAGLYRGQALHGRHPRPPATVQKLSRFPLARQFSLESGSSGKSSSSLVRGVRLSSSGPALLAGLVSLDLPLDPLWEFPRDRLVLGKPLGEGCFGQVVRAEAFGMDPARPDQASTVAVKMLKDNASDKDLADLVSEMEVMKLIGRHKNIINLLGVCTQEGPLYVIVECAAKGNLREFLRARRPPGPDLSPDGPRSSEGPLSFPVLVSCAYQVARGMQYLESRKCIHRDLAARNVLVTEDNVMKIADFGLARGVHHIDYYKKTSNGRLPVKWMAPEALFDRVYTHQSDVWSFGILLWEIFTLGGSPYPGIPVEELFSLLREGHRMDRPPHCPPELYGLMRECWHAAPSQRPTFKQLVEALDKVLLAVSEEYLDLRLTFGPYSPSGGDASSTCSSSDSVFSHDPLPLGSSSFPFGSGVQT
T3 sequence (P22607 23-806): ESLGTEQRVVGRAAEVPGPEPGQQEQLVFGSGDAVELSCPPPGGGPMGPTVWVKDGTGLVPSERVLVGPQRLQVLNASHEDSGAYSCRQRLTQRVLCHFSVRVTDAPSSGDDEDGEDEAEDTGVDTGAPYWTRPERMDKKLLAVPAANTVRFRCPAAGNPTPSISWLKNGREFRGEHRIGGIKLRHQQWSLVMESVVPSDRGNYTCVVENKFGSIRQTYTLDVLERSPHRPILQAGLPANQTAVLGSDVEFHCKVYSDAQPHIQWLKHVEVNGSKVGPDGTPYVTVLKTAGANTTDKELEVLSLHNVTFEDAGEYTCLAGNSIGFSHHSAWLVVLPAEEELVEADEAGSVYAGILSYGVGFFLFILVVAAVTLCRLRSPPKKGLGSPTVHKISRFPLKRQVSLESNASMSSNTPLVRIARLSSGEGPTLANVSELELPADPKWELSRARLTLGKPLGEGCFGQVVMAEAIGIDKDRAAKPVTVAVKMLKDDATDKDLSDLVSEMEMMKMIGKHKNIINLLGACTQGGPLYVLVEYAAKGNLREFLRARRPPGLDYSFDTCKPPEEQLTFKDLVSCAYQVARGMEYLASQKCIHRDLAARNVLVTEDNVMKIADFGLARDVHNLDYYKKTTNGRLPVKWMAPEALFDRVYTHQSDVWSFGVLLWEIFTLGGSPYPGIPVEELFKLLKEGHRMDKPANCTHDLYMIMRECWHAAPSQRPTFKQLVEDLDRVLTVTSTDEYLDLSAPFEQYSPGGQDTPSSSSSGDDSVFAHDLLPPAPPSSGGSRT
T4 sequence (P22607 23-806 V555M): as the sequence (P22607 23-806) above, with V533M counted along it
T2 sequence (P21802 22-821): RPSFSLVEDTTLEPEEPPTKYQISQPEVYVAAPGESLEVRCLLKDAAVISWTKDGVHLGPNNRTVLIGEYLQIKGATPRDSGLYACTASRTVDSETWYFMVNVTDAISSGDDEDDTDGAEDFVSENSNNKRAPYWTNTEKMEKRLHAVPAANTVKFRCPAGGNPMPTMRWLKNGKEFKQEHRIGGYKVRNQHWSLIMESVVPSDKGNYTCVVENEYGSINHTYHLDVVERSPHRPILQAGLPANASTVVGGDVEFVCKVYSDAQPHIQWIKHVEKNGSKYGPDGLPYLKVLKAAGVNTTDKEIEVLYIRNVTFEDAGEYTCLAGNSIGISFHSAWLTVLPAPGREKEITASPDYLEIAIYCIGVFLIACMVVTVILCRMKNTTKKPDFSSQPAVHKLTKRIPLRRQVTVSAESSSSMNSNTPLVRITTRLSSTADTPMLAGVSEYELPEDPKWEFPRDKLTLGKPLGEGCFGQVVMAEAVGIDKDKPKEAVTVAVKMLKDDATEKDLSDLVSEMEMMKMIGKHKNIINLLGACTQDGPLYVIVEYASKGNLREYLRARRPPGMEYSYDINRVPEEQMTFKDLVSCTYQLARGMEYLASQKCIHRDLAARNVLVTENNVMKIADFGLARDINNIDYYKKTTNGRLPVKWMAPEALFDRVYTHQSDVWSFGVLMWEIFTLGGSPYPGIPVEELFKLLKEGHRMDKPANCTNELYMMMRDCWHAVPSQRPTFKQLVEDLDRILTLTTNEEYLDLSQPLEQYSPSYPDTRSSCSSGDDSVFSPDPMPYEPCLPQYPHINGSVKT

In the case of `CCNC1(C)CN(c2ncc(-c3n[nH]c4ccc(O[C@H](C)c5c(Cl)cncc5Cl)cc34)cc2F)C1` [Example 149, 1-[5-[5-[(1R)-1-(3,5-dichloro-4-pyridyl)ethoxy]-1H-indazol-3-yl]-3-fluoro-2-pyridyl]-N-ethyl-3-methyl-azetidin-3-amine], the equilibrium dissociation constant (Kd) in assay [1], in assay [2], in assay [3], in assay [4] and in assay [5] was 1 to 50 nM throughout. The IC50 in assay [6], in assay [7] and in assay [8] was 0.0001 to 0.05 µM in each case.
In the case of `COc1cc2[nH]nc(-c3cnc(N4CC(C)(NCC5(O)CC5)C4)c(F)c3)c2cc1O[C@H](C)c1c(Cl)cncc1Cl` [Example 119, (R)-1-(((1-(5-(5-(1-(3,5-dichloropyridin-4-yl)ethoxy)-6-methoxy-1H-indazol-3-yl)-3-fluoropyridin-2-yl)-3-methylazetidin-3-yl)amino)methyl)cyclo-propan-1-ol], the Kd in assay [1], in assay [2], in assay [3], in assay [4] and in assay [5] was 1 to 50 nM each time. Further, the IC50 in assay [6], in assay [7] and in assay [8] was 0.0001 to 0.05 µM throughout.
As to `COc1cc2[nH]nc(-c3ccc(N4CC(C)(N[C@H]5CCOC5)C4)nc3)c2cc1O[C@H](C)c1c(Cl)cncc1Cl` [Example 66, 1-(5-(5-((R)-1-(3,5-dichloropyridin-4-yl)ethoxy)-6-methoxy-1H-indazol-3-yl)pyridin-2-yl)-3-methyl-N-((S)-tetrahydrofuran-3-yl)azetidin-3-amine], the Kd in assay [1], in assay [2], in assay [3], in assay [4] and in assay [5] was 1 to 50 nM throughout. In addition, the IC50 in assay [6], in assay [7] and in assay [8] was 0.0001 to 0.05 µM throughout.
Regarding `CCN(CC)C1(C)CN(c2ccc(-c3n[nH]c4ccc(O[C@H](C)c5c(Cl)cnc(C)c5Cl)cc34)cn2)C1` [Example 72, 1-[5-[5-[(1R)-1-(3,5-dichloro-2-methyl-4-pyridyl)ethoxy]-1H-indazol-3-yl]-2-pyridyl]-N,N-diethyl-3-methyl-azetidin-3-amine], the Kd in assay [1], in assay [2], in assay [3], in assay [4] and in assay [5] was 1 to 50 nM throughout. Also, the results for the IC50 in assay [6], in assay [7] and in assay [8] were 0.05 to 0.2 µM, 0.2 to 1 µM and 0.0001 to 0.05 µM, respectively.
As to `C[C@@H](Oc1ccc2[nH]nc(-c3ccc(N4CC(C)(OCC(C)(C)O)C4)nc3)c2c1)c1c(Cl)cncc1Cl` [Example 93, (R)-1-((1-(5-(5-(1-(3,5-dichloropyridin-4-yl)ethoxy)-1H-indazol-3-yl)pyridin-2-yl)-3-methylazetidin-3-yl)oxy)-2-methylpropan-2-ol], the Kd in assay [1], in assay [2], in assay [3], in assay [4] and in assay [5] was 1 to 50 nM in each case. The results for the IC50 in assay [6], in assay [7] and in assay [8] were 0.0001 to 0.05 µM, 0.05 to 0.2 µM and 0.0001 to 0.05 µM, respectively.
On to `CC(C)NC1(C)CN(c2ncc(-c3n[nH]c4ccc(O[C@H](C)c5c(Cl)cncc5Cl)cc34)cc2F)C1` [Example 117, (R)-1-(5-(5-(1-(3,5-dichloropyridin-4-yl)ethoxy)-1H-indazol-3-yl)-3-fluoropyridin-2-yl)-N-isopropyl-3-methylazetidin-3-amine], for which the Kd in assay [1], in assay [2], in assay [3], in assay [4] and in assay [5] was 1 to 50 nM each time. Besides, the figures for the IC50 in assay [6], in assay [7] and in assay [8] were 0.05 to 0.2 µM, 0.05 to 0.2 µM and 0.0001 to 0.05 µM, respectively.
Regarding `C[C@@H](Oc1ccc2[nH]nc(-c3cnc(N4CC(C)(CN5CCOCC5)C4)c(F)c3)c2c1)c1c(Cl)cncc1Cl` [Example 109, (R)-4-((1-(5-(5-(1-(3,5-dichloropyridin-4-yl)ethoxy)-1H-indazol-3-yl)-3-fluoropyridin-2-yl)-3-methylazetidin-3-yl)methyl)morpholine], the Kd in assay [1], in assay [2], in assay [3], in assay [4] and in assay [5] was 1 to 50 nM throughout. The IC50 in assay [6] lay in the range of 0.05 to 0.2 µM; in assay [7], 0.05 to 0.2 µM; in assay [8], 0.0001 to 0.05 µM.
Consider `C[C@@H](Oc1ccc2[nH]nc(-c3cnc(N4CC(C)(CN5CCCC5)C4)c(F)c3)c2c1)c1c(Cl)cncc1Cl` [Example 110, (R)-5-(1-(3,5-dichloropyridin-4-yl)ethoxy)-3-(5-fluoro-6-(3-methyl-3-(pyrrolidin-1-ylmethyl)azetidin-1-yl)pyridin-3-yl)-1H-indazole], for which the Kd in assay [1], in assay [2], in assay [3], in assay [4] and in assay [5] was 1 to 50 nM throughout. Moreover, the IC50 in assay [6], in assay [7] and in assay [8] was 0.0001 to 0.05 µM each time.
As to `C[C@@H](Oc1ccc2[nH]nc(-c3cnc(N4CC(C)(N5C[C@H]6C[C@@H]5CO6)C4)c(F)c3)c2c1)c1c(Cl)cncc1Cl` [Example 223, (1R,4R)-5-(1-(5-(5-((R)-1-(3,5-dichloropyridin-4-yl)ethoxy)-1H-indazol-3-yl)-3-fluoropyridin-2-yl)-3-methylazetidin-3-yl)-2-oxa-5-aza-bicyclo[2.2.1]hep-tane], the Kd in assay [1], in assay [2], in assay [3], in assay [4] and in assay [5] was 1 to 50 nM each time. Also, the half-maximal inhibitory concentration (IC50) in assay [6] was in the range of 0.0001 to 0.05 µM; in assay [7], 0.05 to 0.2 µM; in assay [8], 0.0001 to 0.05 µM.
With `C[C@@H](Oc1ccc2[nH]nc(-c3cnc(N4CC(C)(N5CC6CC(C5)O6)C4)c(F)c3)c2c1)c1c(Cl)cncc1Cl` [Example 217, 3-(1-(5-(5-((R)-1-(3,5-dichloropyridin-4-yl)ethoxy)-1H-indazol-3-yl)-3-fluoropyridin-2-yl)-3-methylazetidin-3-yl)-6-oxa-3-aza-bicyclo[3.1.1]hep-tane], the Kd in assay [1], in assay [2], in assay [3], in assay [4] and in assay [5] was 1 to 50 nM each time. For the same compound, the values for the IC50 in assay [6], in assay [7] and in assay [8] were 0.0001 to 0.05 µM, 0.05 to 0.2 µM and 0.0001 to 0.05 µM, respectively.
`CCNC1(C)CN(c2ncc(-c3n[nH]c4cc(OC)c(O[C@H](C)c5c(Cl)cncc5Cl)cc34)cc2C#N)C1` [Example 341, (R)-5-(5-(1-(3,5-Dichloropyridin-4-yl)ethoxy)-6-methoxy-1H-indazol-3-yl)-2-(3-(ethylamino)-3-methylazetidin-1-yl)nicotinonitrile HCl]: the Kd in assay [1], in assay [2], in assay [3], in assay [4] and in assay [5] was 1 to 50 nM throughout. Also, the half-maximal inhibitory concentration (IC50) in assay [6] was 0.05 to 0.2 µM; in assay [7] it was 0.0001 to 0.05 µM; in assay [8], 0.0001 to 0.05 µM.
As for `CNC1(C)CN(c2ccc(-c3n[nH]c4cc(F)c(O[C@H](C)c5c(Cl)cncc5Cl)cc34)cn2)C1` [Example 59, 1-[5-[5-[(1R)-1-(3,5-dichloro-4-pyridyl)ethoxy]-6-fluoro-1H-indazol-3-yl]-2-pyridyl]-N,3-dimethyl-azetidin-3-amine], the Kd in assay [1], in assay [2], in assay [3], in assay [4] and in assay [5] was 1 to 50 nM in each case. Also, the IC50 fell in the range of 0.2 to 1 µM in assay [6], 0.2 to 1 µM in assay [7] and 0.0001 to 0.05 µM in assay [8].
Turning to `C[C@H](O)CNC1(C)CN(c2ncc(-c3n[nH]c4ccc(O[C@H](C)c5c(Cl)cncc5Cl)cc34)cc2F)C1` [Example 112, (S)-1-((1-(5-(5-((R)-1-(3,5-dichloropyridin-4-yl)ethoxy)-1H-indazol-3-yl)-3-fluoropyridin-2-yl)-3-methylazetidin-3-yl)amino)propan-2-ol], the dissociation constant Kd in assay [1], in assay [2], in assay [3], in assay [4] and in assay [5] was 1 to 50 nM each time. The IC50 in assay [6], in assay [7] and in assay [8] was 0.0001 to 0.05 µM each time.
